Key:
galectin-7 = target: T1, galectin-7 (Homo sapiens, UniProt P47929); assay: Isothermal titration calorimetry (ITC), galectin-7; type: binding
T1 construct: (residues 1-136); 6xHis; made in house; host or cells: Escherichia coli BL21 (DE3)
Method: (§1) Human galectins-1, -3CRD and -7 were produced in E. coli according to previous studies.
(§2) Samples for use in ITC were diluted to appropriate concentrations in dialysate buffer (25 mM Tris-HCl pH 8.0, 300 mM NaCl and 5 mM β-mercaptoethanol) saved from the ultrafiltration step. All samples were filtered with 0.22 μm cutoff filters (Millipore) and extensively degassed with stirring prior to use. […] To avoid heating effects due to differing concentration of DMSO in the injectant and protein solutions, 5% DMSO was added to the protein. Software provided by Microcal was used for the curve fitting of the experimental data as well as for calculation of the thermodynamic data. Specifically, all ITC data were corrected for the heat of dilution of the titrant by subtracting the excess heats at high molar ratios of ligands to galectins. Binding stoichiometry, enthalpy and equilibrium association constants were determined by fitting the corrected data to a bimolecular interaction model and summarised in Table 1.
(§3) Isothermal titration calorimetry (ITC). Samples for use in ITC were diluted to appropriate concentrations in dialysate buffer (25 mM
(§4) Tris-HCl pH 8.0, 300 mM NaCl and 5 mM β-mercaptoethanol) saved from the ultrafiltration step. All samples were filtered with […] cutoff filters (Millipore) and extensively degassed with stirring prior to use.
(§5) Isothermal titration calorimetry was performed using MicroCal
(§6) Auto-iTC200 (MicroCal, INc., Northampton, MA) at 298K. […]
(§7) order to avoid heating effects due to differing concentration of DMSO in the injectant and protein solutions, 5% DMSO was added to the protein.
(§8) Software provided by Microcal was used for the curve fitting of the experimental data as well as for calculation of the thermodynamic data.
(§9) Specifically, all ITC data were corrected for the heat of dilution of the titrant by subtracting the excess heats at high molar ratios of ligands to galectins. Binding stoichiometry, enthalpy and equilibrium association constants were determined by fitting the corrected data to a bimolecular

galectin-3 [1] = target: T2, galectin-3 (Homo sapiens, UniProt P17931); assay: Isothermal titration calorimetry (ITC), galectin-3; type: binding
T2 construct: CRD domain of galectin-3 (residues 113-250); 6xHis; made in house; host or cells: Escherichia coli BL21 (DE3)
T2 sequence (P17931 113-250): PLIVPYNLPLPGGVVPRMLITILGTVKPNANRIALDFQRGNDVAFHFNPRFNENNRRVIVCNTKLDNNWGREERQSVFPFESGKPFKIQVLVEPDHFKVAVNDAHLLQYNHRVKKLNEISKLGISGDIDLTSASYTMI
Method: as §1, §2, §3, §4, §5, §6, §7, §8, §9

galectin-1 = target: T3, galectin-1 (Homo sapiens, UniProt P09382); assay: Isothermal titration calorimetry (ITC), galectin-1; type: binding
T3 construct: full-length galectins-1 (residues 1-135); 6xHis; made in house; host or cells: Escherichia coli BL21 (DE3)
T3 sequence (P09382 whole entry, the tested form may be a part): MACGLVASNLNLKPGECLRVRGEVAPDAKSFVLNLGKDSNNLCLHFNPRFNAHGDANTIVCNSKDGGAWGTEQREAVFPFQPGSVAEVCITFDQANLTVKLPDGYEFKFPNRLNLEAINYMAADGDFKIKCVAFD
Method: as §1, §2, §3, §4, §5, §6, §7, §8, §9

galectin-3 [2] = conditions: cited from earlier work

T1 sequence (P47929 whole entry, the tested form may be a part): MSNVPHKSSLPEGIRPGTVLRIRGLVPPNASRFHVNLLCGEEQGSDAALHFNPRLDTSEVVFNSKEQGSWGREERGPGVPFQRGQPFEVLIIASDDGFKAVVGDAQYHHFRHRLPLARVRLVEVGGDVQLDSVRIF

Compound | -TΔS (galectin-7; 298 K) | n (stoichiometry) (galectin-7; 298 K) | ΔG (galectin-7; 298 K) | ΔH (galectin-7; 298 K) | -TΔS (galectin-3 [1]; ITC, 298 K) | n (stoichiometry) (galectin-3 [1]; ITC, 298 K) | ΔH (galectin-3 [1]; ITC, 298 K) | -TΔS (galectin-1; 298 K) | n (stoichiometry) (galectin-1; 298 K) | ΔH (galectin-1; 298 K) | Kd (galectin-7; 298 K) | ΔG (galectin-3 [1]; ITC, 298 K) | further results
OC[C@H]1O[C@@H](S[C@@H]2O[C@H](CO)[C@H](O)[C@H](O)[C@H]2O)[C@H](O)[C@@H](O)[C@H]1O [TDG, thio-digalactoside] | 3.2 ± 0.55 kcal/mol | 0.94 ± 0.02 | -4.4 ± 0.06 kcal/mol | -7.6 ± 0.55 kcal/mol | 3.7 ± 0.48 kcal/mol | 1.02 ± 0.05 | -9.4 ± 0.48 kcal/mol | 5.9 ± 0.27 kcal/mol | 1.02 ± 0.10 | -11.6 ± 0.26 kcal/mol |  |  | 
3′-(4-methoxy-2,3,5,6-tetrafluorobenzamido)-N-acetyl-lactosamine [L3] |  |  |  |  |  |  |  |  |  |  |  |  | Kd (galectin-3 [2]): 3.3 µM
OC[C@H]1O[C@@H](S[C@@H]2O[C@H](CO)[C@H](O)[C@H](n3cc(-c4cccc(F)c4)nn3)[C@H]2O)[C@H](O)[C@@H](O)[C@H]1O [TAZTDG, 3-deoxy-3-(4-[m-fluorophenyl]-1H-1,2,3-triazol-1-yl)-thio-digalactoside] | 4.4 ± 0.04 kcal/mol | 0.89 ± 0.01 | -5.5 ± 0.01 kcal/mol | -10.0 ± 0.04 kcal/mol | 6.4 ± 1.02 kcal/mol | 0.92 ± 0.08 | -14.7 ± 0.99 kcal/mol | 8.6 ± 0.51 kcal/mol | 1.06 ± 0.01 | -16.1 ± 0.51 kcal/mol | 87 ± 3.21 µM | -8.3 ± 0.25 kcal/mol | Relative affinity (galectin-7; 298 K, relative to TDG = 1): 6.6; ΔΔH(TAZTDG–TDG) (galectin-7; galectin-7): -2.4 kcal/mol; Kd (galectin-3 [1]; ITC, 298 K, galectin-3CRD): 0.84 ± 0.41 µM; Relative affinity (galectin-3 [1]; ITC, 298 K, relative to TDG = 1): 89.7; ΔΔH(TAZTDG–TDG) (galectin-3 [1]; ITC, galectin-3): -5.3 kcal/mol; Kd (galectin-1; 298 K): 3.24 ± 0.3 µM; ΔG (galectin-1; 298 K): -7.5 ± 0.05 kcal/mol; Relative affinity (galectin-1; 298 K, relative to TDG = 1): 20.7; ΔΔH(TAZTDG–TDG) (galectin-1; galectin-1): -4.5 kcal/mol
OC[C@H]1O[C@@H](S[C@@H]2O[C@H](CO)[C@H](O)[C@H](n3cc(-c4cccc(F)c4)nn3)[C@H]2O)[C@H](O)[C@@H](n2cc(-c3cccc(F)c3)nn2)[C@H]1O [TD139, 3,3’-deoxy-3,3’-bis-(4-[m-fluorophenyl]-1H-1,2,3-triazol-1-yl)-thio-digalactoside] | 3.2 ± 0.09 kcal/mol | 0.99 ± 0.10 | -6.1 ± 0.06 kcal/mol |  | 8.3 ± 0.90 kcal/mol | 0.96 ± 0.01 | -18.2 ± 0.82 kcal/mol | 7.6 ± 0.43 kcal/mol | 0.96 ± 0.04 | -16.7 ± 0.40 kcal/mol | 38 ± 0.71 µM | -9.9 ± 0.37 kcal/mol | difference in binding free energy ΔΔG(TD139-TDG) (galectin-7; galectin-7): -1.7 kcal/mol; increase in affinity compared with TDG binding (galectin-7; galectin-7): 15 fold; ΔΔH(TD139–TAZTDG) (galectin-7; galectin-7): 0.7 kcal/mol; binding enhancement compared with TDG (galectin-3 [1]; ITC, galectin-3): ~ 1000 fold; change in binding free energy ΔΔG(TD139-TDG) (galectin-3 [1]; ITC, galectin-3): -4.3 kcal/mol; enthalpy change ΔΔH(TD139-TDG) (galectin-3 [1]; ITC, galectin-3): -8.8 kcal/mol; entropy change –TΔΔS(TD139-TDG) (galectin-3 [1]; ITC, galectin-3): 4.6 kcal/mol; ΔΔH(TD139–TAZTDG) (galectin-3 [1]; ITC, galectin-3): -3.5 kcal/mol; increase in binding affinity compared with L3 (galectin-3 [1]; galectin-3, versus literature Kd of L3): 50 fold; binding enhancement compared with binding to TDG (galectin-1; galectin-1): ~ 300 fold; ΔΔH(TD139–TAZTDG) (galectin-1; galectin-1): -0.6 kcal/mol

— PMC4945863, “Dual thio-digalactoside-binding modes of human galectins as the structural basis for the design of potent and selective inhibitors” (Scientific Reports, 2016)
